The results in this text go back to patent US20240067693A1, “POLYPEPTIDES AND USES THEREOF” (MEDIMMUNE LIMITED, priority 2020, published 2024).

Read-outs that look alike come from different tables or passages of the source. Numbered stars: 1 amine (or outer) side, 2 acyl side, 3 side chain; on linkers, the order of the positions; unused ones are H or OH. Bridge positions count the residues as written; N and C are the ends. Square brackets hold non-standard residues; d marks the D form. Side chains are listed from the residue outwards. Peptide text beside a SMILES is read from it. * marks the point of attachment. C18 diacid = O=C(O)CCCCCCCCCCCCCCCCC(=O)*; γGlu = O=C(O)[C@H](CCC(=O)[*:2])N[*:1]; Aib = CC(C)(N)C(=O)O

For assay [1], the target named is T1, human amylin receptor (calcitonin receptor co-expressed with receptor activity modifying protein, RAMP3) (hAMYR3) (Homo sapiens, UniProt O60896+P30988).
T1 construct: expressed in transfected cells
T1 sequence (P30988 25-474): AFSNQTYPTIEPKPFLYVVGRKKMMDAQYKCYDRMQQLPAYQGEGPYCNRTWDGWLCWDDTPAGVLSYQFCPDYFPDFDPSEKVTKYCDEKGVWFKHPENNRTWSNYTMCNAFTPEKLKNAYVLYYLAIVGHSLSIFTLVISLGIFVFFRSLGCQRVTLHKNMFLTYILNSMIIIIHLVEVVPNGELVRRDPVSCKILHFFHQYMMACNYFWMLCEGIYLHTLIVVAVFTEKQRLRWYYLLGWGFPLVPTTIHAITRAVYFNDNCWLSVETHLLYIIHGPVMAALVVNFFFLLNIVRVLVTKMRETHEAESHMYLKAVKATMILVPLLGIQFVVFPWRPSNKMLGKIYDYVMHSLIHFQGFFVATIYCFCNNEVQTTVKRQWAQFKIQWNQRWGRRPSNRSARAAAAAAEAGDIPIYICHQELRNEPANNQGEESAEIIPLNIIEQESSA
T1 sequence (O60896 24-148 partner): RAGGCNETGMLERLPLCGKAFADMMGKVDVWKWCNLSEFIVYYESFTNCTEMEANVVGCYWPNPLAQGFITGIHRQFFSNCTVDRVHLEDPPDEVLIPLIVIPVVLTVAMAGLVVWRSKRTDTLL
The assay is described as follows: cAMP production in 1321N1 cells with stable recombinant expression of human amylin receptor (hAMYR3). The settings on record: for Ratio (selectivity hAMYR vs hCTR, ratio of EC50 values at the two receptors): EC50 hCTR / EC50 hAMYR3. It counts as cell-based. In outline: (§1)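 Thawed cells in HBSS/0.1% BSA/25 mM HEPES pH 7.4 with 0.5 mM IBMX were incubated with peptides 30 min at room temperature; cAMP read by HTRF. EC50 from 4-parameter fit of % activation relative to maximal amylin or calcitonin effect.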

The target of assay [2] is T2, human calcitonin receptor (hCTR) (Homo sapiens, UniProt P30988).
T2 construct: expressed in transfected cells
T2 sequence (P30988 25-474): T1 sequence (P30988 25-474)
Description: cAMP production in 1321N1 cells with stable recombinant expression of human calcitonin receptor (hCTR). Type of assay: cell-based. In outline: as §1

Setting [3] is: cAMP, 1321N1 cells, assay buffer with 0.1% BSA, read-out: EC50 (pM) hAMYR3.
The mark [4] stands for this setting: cAMP, 1321N1 cells, assay buffer with 0.1% BSA, read-out: EC50 (pM) hCTR.

As for `CC[C@H](C)[C@H](NC(=O)[C@@H]1CCCN1C(=O)CNC(=O)[C@H](Cc1ccccc1)NC(=O)[C@H](CC(N)=O)NC(=O)C(C)(C)NC(=O)[C@H](CO)NC(=O)[C@H](CO)NC(=O)[C@H](Cc1c[nH]cn1)NC(=O)C(C)(C)NC(=O)[C@H](CC(C)C)NC(=O)[C@H](Cc1ccccc1)NC(=O)[C@H](CC(N)=O)NC(=O)[C@H](C)NC(=O)[C@H](CC(C)C)NC(=O)[C@H](CCCNC(=N)N)NC(=O)[C@H](CCC(N)=O)NC(=O)[C@@H](NC(=O)[C@H](C)NC(=O)[C@@H]1CSSC[C@H](NC(=O)[C@H](CCCCN)NC(=O)[C@@H](N)CCCCNC(=O)CC[C@H](NC(=O)CCCCCCCCCCCCCCCCC(=O)O)C(=O)O)C(=O)N[C@@H](CC(N)=O)C(=O)N[C@@H]([C@@H](C)O)C(=O)N[C@@H](C)C(=O)N[C@@H]([C@@H](C)O)C(=O)N1)[C@@H](C)O)C(=O)N[C@@H](CC(C)C)C(=O)N1CCC[C@H]1C(=O)N1CCC[C@H]1C(=O)N[C@H](C(=O)N[C@@H](CC(N)=O)C(=O)N[C@H](C(=O)NCC(=O)N[C@@H](CO)C(=O)N[C@@H](CC(N)=O)C(=O)N[C@H](C(=O)N1CCC[C@H]1C(N)=O)[C@@H](C)O)C(C)C)[C@@H](C)O` [Peptide 87, K(γE-C18diacid)K[CNTATC]ATQRLANFL(Aib)HSS(Aib)NFGPILPPTNVGSNTP-amide] (H-K([γGlu-C18 diacid])KCNTATCATQRLANFL[Aib]HSS[Aib]NFGPILPPTNVGSNTP-NH2; disulfide 3-8; N-terminus assumed), the “Ratio (selectivity hAMYR vs hCTR, ratio of EC50 values at the two receptors)” value in assay [1] was found to be 1. Also, the concentration giving a half-maximal response (EC50) in assay [1] (setting [3]) was found to be 71 pM; in assay [2] (setting [4]) it was 74 pM.
Take `CC[C@H](C)[C@H](NC(=O)[C@@H]1CCCN1C(=O)CNC(=O)[C@H](Cc1ccccc1)NC(=O)[C@H](CC(N)=O)NC(=O)C(C)(C)NC(=O)[C@H](CO)NC(=O)[C@H](CO)NC(=O)[C@H](Cc1c[nH]cn1)NC(=O)[C@@H](NC(=O)[C@H](CC(C)C)NC(=O)[C@H](Cc1ccccc1)NC(=O)[C@H](CC(N)=O)NC(=O)[C@H](C)NC(=O)[C@H](CC(C)C)NC(=O)[C@H](CCCNC(=N)N)NC(=O)[C@H](CCC(N)=O)NC(=O)[C@@H](NC(=O)[C@H](C)NC(=O)[C@@H]1CSSC[C@H](NC(=O)[C@H](CCCCN)NC(=O)[C@@H](N)CCCCNC(=O)CC[C@H](NC(=O)CCCCCCCCCCCCCCCCC(=O)O)C(=O)O)C(=O)N[C@@H](CC(N)=O)C(=O)N[C@@H]([C@@H](C)O)C(=O)N[C@@H](C)C(=O)N[C@@H]([C@@H](C)O)C(=O)N1)[C@@H](C)O)C(C)C)C(=O)N[C@@H](CC(C)C)C(=O)NC(C)(C)C(=O)N1CCC[C@H]1C(=O)N[C@H](C(=O)N[C@@H](CC(N)=O)C(=O)N[C@H](C(=O)NCC(=O)N[C@@H](CO)C(=O)N[C@@H](CC(N)=O)C(=O)N[C@H](C(=O)N[C@@H](Cc1ccc(O)cc1)C(N)=O)[C@@H](C)O)C(C)C)[C@@H](C)O` [Peptide 88, K(γE-C18diacid)K[CNTATC]ATQRLANFLVHSS(Aib)NFGPIL(Aib)PTNVGSNTY-amide] (H-K([γGlu-C18 diacid])KCNTATCATQRLANFLVHSS[Aib]NFGPIL[Aib]PTNVGSNTY-NH2; disulfide 3-8; N-terminus assumed): the “Ratio (selectivity hAMYR vs hCTR, ratio of EC50 values at the two receptors)” value in assay [1] amounted to 4. For the same compound, the EC50 in assay [1] (setting [3]) came to 281 pM; in assay [2] (setting [4]) it was 1170 pM.
In the case of `CC[C@H](C)[C@H](NC(=O)[C@@H]1CCCN1C(=O)CNC(=O)[C@H](Cc1ccccc1)NC(=O)[C@H](CC(N)=O)NC(=O)C(C)(C)NC(=O)[C@H](CO)NC(=O)[C@H](CO)NC(=O)[C@H](Cc1c[nH]cn1)NC(=O)[C@@H](NC(=O)[C@H](CC(C)C)NC(=O)[C@H](Cc1ccccc1)NC(=O)[C@H](CC(N)=O)NC(=O)[C@H](C)NC(=O)[C@H](CC(C)C)NC(=O)[C@H](CCCNC(=N)N)NC(=O)[C@H](CCC(N)=O)NC(=O)[C@@H](NC(=O)[C@H](C)NC(=O)[C@@H]1CSSC[C@H](NC(=O)[C@@H](N)CCCCNC(=O)CC[C@H](NC(=O)CC[C@H](NC(=O)CCCCCCCCCCCCCCCCC(=O)O)C(=O)O)C(=O)O)C(=O)N[C@@H](CC(N)=O)C(=O)N[C@@H]([C@@H](C)O)C(=O)N[C@@H](C)C(=O)N[C@@H]([C@@H](C)O)C(=O)N1)[C@@H](C)O)C(C)C)C(=O)N[C@@H](CC(C)C)C(=O)N1CCC[C@H]1C(=O)N1CCC[C@H]1C(=O)N[C@H](C(=O)NC(C)(C)C(=O)N[C@H](C(=O)NCC(=O)N[C@@H](CO)C(=O)N[C@@H](CC(N)=O)C(=O)N[C@H](C(=O)N[C@@H](Cc1ccc(O)cc1)C(N)=O)[C@@H](C)O)C(C)C)[C@@H](C)O` [Peptide 89, K(γE-γE-C18diacid)[CNTATCJATQRLANFLVHSS(Aib)NFGPILPPT(Aib)VGSNTY-amide] (H-K([γGlu-γGlu-C18 diacid])CNTATCATQRLANFLVHSS[Aib]NFGPILPPT[Aib]VGSNTY-NH2; disulfide 2-7; N-terminus assumed), the results for the EC50 in assay [1] and in assay [2] were 447 pM and 8240 pM, respectively.
With `CC[C@H](C)[C@H](NC(=O)[C@@H]1CCCN1C(=O)CNC(=O)[C@H](Cc1ccccc1)NC(=O)[C@H](CC(N)=O)NC(=O)C(C)(C)NC(=O)[C@H](CO)NC(=O)[C@H](CO)NC(=O)[C@H](Cc1c[nH]cn1)NC(=O)[C@H](CCCNC(=N)N)NC(=O)[C@H](CC(C)C)NC(=O)[C@H](Cc1ccccc1)NC(=O)[C@H](CC(N)=O)NC(=O)[C@H](C)NC(=O)[C@H](CC(C)C)NC(=O)[C@H](CCCNC(=N)N)NC(=O)[C@H](CCC(N)=O)NC(=O)[C@@H](NC(=O)[C@H](C)NC(=O)[C@@H]1CSSC[C@H](NC(=O)[C@@H](N)CCCCNC(=O)CC[C@H](NC(=O)CC[C@H](NC(=O)CCCCCCCCCCCCCCCCC(=O)O)C(=O)O)C(=O)O)C(=O)N[C@@H](CC(N)=O)C(=O)N[C@@H]([C@@H](C)O)C(=O)N[C@@H](C)C(=O)N[C@@H]([C@@H](C)O)C(=O)N1)[C@@H](C)O)C(=O)N[C@@H](CC(C)C)C(=O)N1CCC[C@H]1C(=O)N1CCC[C@H]1C(=O)N[C@H](C(=O)NC(C)(C)C(=O)N[C@H](C(=O)NCC(=O)N[C@@H](CO)C(=O)N[C@@H](CC(N)=O)C(=O)N[C@H](C(=O)N[C@@H](Cc1ccc(O)cc1)C(N)=O)[C@@H](C)O)C(C)C)[C@@H](C)O` [Peptide 90, K(γE-γE-C18diacid)[CNTATC]ATQRLANFLRHSS(Aib)NFGPILPPT(Aib)VGSNTY-amide] (H-K([γGlu-γGlu-C18 diacid])CNTATCATQRLANFLRHSS[Aib]NFGPILPPT[Aib]VGSNTY-NH2; disulfide 2-7; N-terminus assumed), the “Ratio (selectivity hAMYR vs hCTR, ratio of EC50 values at the two receptors)” value in assay [1] was found to be 15. For the same compound, the results for the EC50 in assay [1] (setting [3]) and in assay [2] (setting [4]) were 1060 pM and 15600 pM, respectively.
The like results for `CC[C@H](C)[C@H](NC(=O)[C@@H]1CCCN1C(=O)CNC(=O)[C@H](Cc1ccccc1)NC(=O)[C@H](CC(N)=O)NC(=O)C(C)(C)NC(=O)[C@H](CO)NC(=O)[C@H](CO)NC(=O)[C@H](Cc1c[nH]cn1)NC(=O)[C@@H](NC(=O)[C@H](CC(C)C)NC(=O)[C@H](Cc1ccccc1)NC(=O)[C@H](CC(N)=O)NC(=O)[C@H](C)NC(=O)[C@H](CC(C)C)NC(=O)[C@H](CCCNC(=N)N)NC(=O)[C@H](CCC(N)=O)NC(=O)[C@@H](NC(=O)[C@H](C)NC(=O)[C@@H]1CSSC[C@H](NC(=O)[C@@H](N)CCCCNC(=O)CC[C@H](NC(=O)CC[C@H](NC(=O)CCCCCCCCCCCCCCCCC(=O)O)C(=O)O)C(=O)O)C(=O)N[C@@H](CC(N)=O)C(=O)N[C@@H]([C@@H](C)O)C(=O)N[C@@H](C)C(=O)N[C@@H]([C@@H](C)O)C(=O)N1)[C@@H](C)O)C(C)C)C(=O)N[C@@H](CC(C)C)C(=O)N1CCC[C@H]1C(=O)N1CCC[C@H]1C(=O)N[C@H](C(=O)N[C@@H](CC(N)=O)C(=O)N[C@H](C(=O)NCC(=O)N[C@@H](CO)C(=O)NC(C)(C)C(=O)N[C@H](C(=O)N[C@@H](Cc1ccc(O)cc1)C(N)=O)[C@@H](C)O)C(C)C)[C@@H](C)O` [Peptide 91, K(γE-γE-C18diacid)[CNTATC]ATQRLANFLVHSS(Aib)NFGPILPPTNVGS(Aib)TY-amide] (H-K([γGlu-γGlu-C18 diacid])CNTATCATQRLANFLVHSS[Aib]NFGPILPPTNVGS[Aib]TY-NH2; disulfide 2-7; N-terminus assumed) were, in that order, 12, 200 pM and 2360 pM.
